Assay in series [1]: not given
This is another data set of the same source.

Assay in series [2]: not given
This is another data set of the same source.

The molecule `C[Si]1(C)CCCCO1` [1,1-Dimethyl-1-sila-2-oxacyclohexane] gave a flash point of 14.00 °C.
With `CC1(C)CCCCC1` [1,1-dimethylcyclohexane], the flash point in series [1] amounted to 7 °C.
Turning to `C=C[Si](C)(C)N[Si](C)(C)C=C` [1,3-Divinyltetramethyldisilazane], the flash point is 34.00 °C.
In turn, `CCC(C)C(C)C(C)(C)C` (stereo not given) [2,2,3,4-Tetramethylhexane] came in with a flash point in series [2] of 31 °C.
Still for that read-out and setting: the value for `CCC(C)C(C)(C)C` (stereo not given) [2,2,3-Trimethylpentane] was -3 °C; that for `CC(CC(C)(C)C)CC(C)(C)CC(C)(C)C` (stereo not given) [2,2,4,4,6,8,8-Heptamethylnonane] was 95 °C.
Still for that read-out and setting: the value for `CCC(C)(C)CC(C)(C)C` [2,2,4,4-Tetramethylhexane] was 31 °C.
For `CCC(C)CC(C)(C)C` (stereo not given) [2,2,4-Trimethylhexane], the flash point in series [2] was 15 °C.
The same measure, in the same setting: the value for `CCCCCC(C)(C)C` [2,2-Dimethylheptane] was 24 °C; that for `CCCCC(C)(C)C` [2,2-Dimethylhexane] was -4 °C.
On the same count and under the same terms, the value for `CCCC(C)(C)C` [2,2-Dimethylpentane] was -23 °C; that for `CC(C)(C)C` [2,2-Dimethylpropane] was -65 °C; that for `CCCC(C)(C)C(C)C` [2,3,3-Trimethylhexane] was 15 °C.
The same measure, in the same setting: the value for `CCC(C)(C)C(C)C(C)C` (stereo not given) [2,3,4,4-Tetramethylhexane] was 31 °C; that for `CC(C)C(C)C(C)C(C)C` (stereo not given) [2,3,4,5-Tetramethylhexane] was 31 °C.
In the case of `CC(C)C(C)C(C)C` [2,3,4-Trimethylpentane], the flash point in series [2] was -0 °C.
`CCCCC(C)C(C)C` (stereo not given) [2,3-Dimethylheptane] came in with a flash point in series [2] of 15 °C.
Take `CCCCCC(C)C(C)C` (stereo not given) [2,3-Dimethyloctane]: the flash point in series [2] worked out at 41 °C.
`CCC(C)(C)CC(C)C` [2,4,4-Trimethylhexane] had a flash point in series [2] of 15 °C.
The same measure, in the same setting: as for `CC(C)CC(C)CC(C)C` [2,4,6-Trimethylheptane], the figure is 31 °C.
Still for that read-out and setting: as for `CCCC(C)CC(C)C` (stereo not given) [2,4-Dimethylheptane], the figure is 15 °C.
`CCC(C)CC(C)C` (stereo not given) [2,4-Dimethylhexane] registered a flash point in series [2] of 10 °C.
On the same count and under the same terms, the value for `CC(C)CCCCC(C)C` [2,7-Dimethyloctane] was 41 °C.
`C=C(CCl)C[Si](C)(C)C` [2-Chloromethyl-3-trimethylsilyl-1-propene] gave a flash point of 43.00 °C.
`CCCC(C)C` [2-Methylpentane] gave a flash point in series [2] of -23 °C.
The same measure, in the same setting: the value for `CCC(C)(C)C(C)(C)CC` [3,3,4,4-Tetramethylhexane] was 31 °C; that for `CCCC(C)(C)CC` [3,3-Dimethylhexane] was -1 °C.
Same read-out and setting: as for `CCCCCC(C)(C)CC` [3,3-Dimethyloctane], the figure is 41 °C.
In series [2], `CCC(C)C(C)CC` (stereo not given) [3,4-Dimethylhexane] gave a flash point of 4 °C.
As to `CCC(C)CC(C)CC` (stereo not given) [3,5-Dimethylheptane], in series [2], the flash point was determined as 15 °C.
On the same count and under the same terms, as for `CCCC(C)CC(C)CC` (stereo not given) [3,5-Dimethyloctane], the figure is 41 °C.
Consider `C[Si](Cl)(Cl)CCCCl` [3-Chloropropylmethyldichlorosilane], for which the flash point is 86.00 °C.
`CCC(CC)C(C)(C)C` [3-Ethyl-2,2-dimethylpentane] displayed a flash point in series [2] of 13 °C.
On the same count and under the same terms, as for `CCCCC(C)(CC)CC` [3-Ethyl-3-methylheptane], the figure is 41 °C; as for `CCC(C)C(CC)CC` (stereo not given) [3-Ethyl-4-methylhexane], 15 °C; as for `CCC(C)CC(CC)CC` (stereo not given) [3-Ethyl-5-methylheptane], 31 °C.
Take `CCC(C)(CC)CC` [3-Methyl-3-ethylpentane]: the flash point in series [2] was 3 °C.
On the same count and under the same terms, as for `CCCC(C)CC` (stereo not given) [3-Methylhexane], the figure is -15 °C; as for `CCCCCC(C)CC` (stereo not given) [3-Methyloctane], 24 °C; as for `CCC(C)CC` [3-Methylpentane], -32 °C.
On to `CCCC(C)(C)CCC` [4,4-Dimethylheptane], for which, in series [2], the flash point stood at 15 °C.
Still for that read-out and setting: as for `CCCC(CC)CCC` [4-Ethylheptane], the figure is 15 °C.
`C[Si](C)(C)CBr` [Bromomethyltrimethylsilane] gave a flash point of 16.00 °C.
Molecule `CCO[Si](C)(C)CCl` [Chloromethyldimethylethoxysilane] came in with a flash point of 26.00 °C.
Molecule `C[Si](Cl)(Cl)CCC#N` [Cyanoethylmethyldichlorosilane] gave a flash point of 60.00 °C.
Regarding `Cl[SiH](Cl)C1CCCC1` [Cyclopentyldichlorosilane], the flash point came out at 43.00 °C.
For the molecule `Cl[Si](Cl)(Cl)C1CCCC1` [Cyclopentyltrichlorosilane], the flash point was found to be 77.00 °C.
`C[Si](C)(C)O[Si](C)(C)O[Si](C)(C)O[Si](C)(C)C` [Decamethyltetrasiloxane]: the flash point was determined as 62.00 °C.
The same measure, in the same setting: the value for `C[Si](Cl)(Cl)C(Cl)Cl` [Dichloromethylmethyldichlorosilane] was 28.00 °C; that for `CC[Si](C)(Cl)CC` [Diethylmethylchlorosilane] was 15.00 °C.
Still for that read-out and setting: the value for `CC[SiH2]CC` [Diethylsilane] was -20.00 °C.
On the same count and under the same terms, as for `C[SiH](C)c1c(F)c(F)c(F)c(F)c1F` [Dimethyl(pentafluorophenyl) silane], the figure is 40.00 °C; as for `C[SiH](C)Cl` [Dimethylchlorosilane], -28.00 °C.
With `CCO[Si](C)(C)OCC` [Dimethyldiethoxysilane], the flash point is 11.00 °C.
In the case of `C=C[Si](C)(C)C=C` [Divinyldimethylsilane], the flash point amounted to 8.00 °C.
Still for that read-out and setting: the value for `CCO[Si](C)(C)C` [Ethoxytrimethylsilane] was -27.00 °C; that for `CC[Si](Cl)(Cl)Cl` [Ethyltrichlorosilane] was -10.00 °C; that for `CC[Si](OC)(OC)OC` [Ethyltrimethoxysilane] was 27.00 °C.
Still for that read-out and setting: as for `CN([Si](C)(C)C)[Si](C)(C)C` [Heptamethyldisilazane], the figure is 27.00 °C; as for `C[Si](C)(C)O[Si](C)(C)O[Si](C)(C)O[Si](C)(C)O[Si](C)(C)O[Si](C)(C)O[Si](C)(C)C` [Hexadecamethylheptasiloxane], 133.00 °C.
Still for that read-out and setting: the value for `C[Si](C)(C)O[SiH2]O[Si](C)(C)C` [Hexamethyltrisiloxane] was 20.00 °C; that for `CCCCCC[SiH](Cl)Cl` [Hexyldichlorosilane] was 64.00 °C.
Molecule `CCCCCC[SiH3]` [Hexylsilane] showed a flash point of 12.00 °C.
Consider `CCCCCC[Si](OC)(OC)OC` [Hexyltrimethoxysilane], for which the flash point was found to be 62.00 °C.
`C[Si](C)(C)I` [Iodotrimethylsilane] gave a flash point of 15.00 °C.
Still for that read-out and setting: the value for `C[Si](Cl)(c1ccccc1)c1ccccc1` [Methyldiphenylchlorosilane] was 138.00 °C; that for `CC(=O)O[Si](C)(OC(C)=O)OC(C)=O` [Methyltriacetoxysilane] was 85.00 °C.
Still for that read-out and setting: the value for `CO[Si](C)(OC)OC` [Methyltrimethoxysilane] was 11.00 °C; that for `C[Si](C)(C)O[Si](C)(C)O[Si](C)(C)O[Si](C)(C)O[Si](C)(C)O[Si](C)(C)O[Si](C)(C)O[Si](C)(C)C` [Octadecamethyloctasiloxane] was 144.00 °C; that for `C[Si]1(C)O[Si](C)(C)O[Si](C)(C)O[Si](C)(C)O1` [Octamethylcyclotetrasiloxane] was 57.00 °C.
Same read-out and setting: as for `C[Si](C)(C)O[Si](C)(C)O[Si](C)(C)C` [Octamethyltrisiloxane], the figure is 30.00 °C; as for `Cl[SiH](Cl)c1ccccc1` [Phenyldichlorosilane], 60.00 °C; as for `CCO[Si](OCC)(OCC)c1ccccc1` [Phenyltriethoxysilane], 120.00 °C.
The molecule `CCCO[Si](OCCC)(OCCC)OCCC` [Tetra-n-propoxysilane] registered a flash point of 95.00 °C.
Same read-out and setting: the value for `C[Si](C)(C)O[Si](C)(C)O[Si](C)(C)O[Si](C)(C)O[Si](C)(C)O[Si](C)(C)C` [Tetradecamethylhexasiloxane] was 102.00 °C; that for `CCO[Si](OCC)(OCC)OCC` [Tetraethoxysilane] was 50.00 °C; that for `CC[Si](CC)(CC)CC` [Tetraethylsilane] was 32.00 °C.
`C=C[Si](C=C)(C=C)C=C` [Tetravinylsilane]: the flash point worked out at 18.00 °C.
With `Clc1ccc([Si](Cl)(Cl)Cl)cc1` [Trichloro(p-chlorophenyl)silane], the flash point was determined as 123.90 °C.
On the same count and under the same terms, the value for `CC[Si](Cl)(CC)CC` [Triethylchlorosilane] was 30.00 °C; that for `CC(C)[SiH](C(C)C)C(C)C` [Triisopropylsilane] was 37.00 °C.
In turn, `C[Si](C)(C)Br` [Trimethylbromosilane] registered a flash point of -3.00 °C.
Molecule `C[Si](C)(C)c1ccccc1` [Trimethylphenylsilane] returned a flash point of 40.00 °C.
Same read-out and setting: the value for `C[Si](C)(C)OC(=O)C(F)(F)F` [Trimethylsilyltrifluoroacetate] was 0.00 °C; that for `C[Si](C)(C)O[SiH](O[Si](C)(C)C)O[Si](C)(C)C` [Tris(trimethylsiloxy)silane] was 50.00 °C.
`C=C[Si](OCC)(OCC)OCC` [Vinyltriethoxysilane] returned a flash point of 34.00 °C.
`CCCC[Si](Cl)(Cl)Cl` [n-Butyltrichlorosilane] had a flash point of 54.00 °C.
`CCCCCCC[Si](C)(Cl)Cl` [n-Heptylmethyldichlorosilane] displayed a flash point of 66.00 °C.
`CCCCCCC[Si](Cl)(Cl)Cl` [n-Heptyltrichlorosilane]: the flash point amounted to 64.00 °C.
Take `CC(C)(C)[Si](Cl)(Cl)Cl` [t-Butyltrichlorosilane]: the flash point came out at 21.00 °C.
